Results as given in patent US20110152313A1 (MACQUARIE UNIVERSITY, priority 2008, published 2011).
Values after ≈ are worked out from the molar mass of the structure shown.

What was measured:
DYRK1A = DYRK1A (Homo sapiens, UniProt Q13627); assay: kinase binding constant, 11-point dose response (T7 phage, qPCR); details: >30 = no inhibition at highest concentration tested
Experimental: (§1) Kinase inhibition studies were performed by methods well known in the prior art (Fabian, M. A. et al. Nat. Biotechnol. 2005, 23, 329). Briefly, kinase-tagged T7 phage strains were prepared in an E. coli host derived from the BL21 strain. E. coli were grown to log-phase and infected with T7 phage and incubated with shaking at 32° C. until lysis. The lysates were centrifuged and filtered to remove cell debris. […] The liganded beads were blocked with excess biotin and washed with blocking buffer (SeaBlock (Pierce); 1% BSA, 0.05% Tween 20, 1 mM DTT) to remove unbound ligand and to reduce non-specific binding. […] All reactions were performed in polystyrene 96-well plates in a final volume of 0.135 ml. […] The kinase concentration in the eluates was measured by qPCR.
(§2) An 11-point 3-fold serial dilution of each test compound (from 30 μM to 0.5 nM) was prepared in 100% DMSO at 100× final test concentration and subsequently diluted to 1× in the assay (final DMSO concentration=1%). Binding constants (KDS) were calculated with a standard dose-response curve using a 5-point sigmoidal (Hill) equation.

CAMKK1 = CAMKK1 (Homo sapiens, UniProt Q8N5S9); assay: as above; details: >30 = no inhibition at highest concentration tested
Experimental: as §1, §2

CAMKK2 = CAMKK2 (Homo sapiens, UniProt Q96RR4); assay: as above; details: >30 = no inhibition at highest concentration tested
Experimental: as §1, §2

[1] = system: new blood vessel growth from isolated rat aorta fragments; assay: rat aorta fragment vessel outgrowth (anti-angiogenic) assay in fibrin gel; assay type: cell-based; details: 120 h, read-out: Anti-Angiogenesis Activity IC50 (concentration that inhibits 50% of the new blood vessel growth); rat aorta fragments, day 5; >100 = no inhibition under the assay conditions
Experimental: A potentially non-toxic method of treating cancer is to inhibit angiogenesis. The human anti-angiogenic and therefore antiproliferative action of drugs can be assessed by many methods well known in the prior art. […] Briefly, thoracic aortas were excized from 3-9 month-old female Fischer rats, cross-sectioned at 1 mm intervals and embedded individually in 0.5 ml of a fibrin gel containing 5 μg/ml of aprotinin (to prevent fibrinolysis) in each well of a 48-well culture plate. Immediately after vessel embedding, 0.5 ml/well of medium M199, supplemented with 20% foetal calf serum, 0.1% E-aminocaproic acid, 1% L-glutamine and antibiotics, was added. Each test compound (10 mg/ml, dissolved in DMSO) was added to the medium (maximum final concentration of test compound 100 μg/ml) and each treatment was performed in six wells. Control cultures received medium containing 0.1% DMSO but without any test compound. […] Vessels were cultured at 37° C. in 5% CO2 in air for 5 days and the medium, with or without test compound, was changed on day 4. Vessel growth was quantified manually under 40× magnification on day 5, with growth being estimated as the percentage of the field (×40) around the vessel fragment that was occupied by vessel outgrowths. By counting the number of vessels formed after 5 days at three to six different concentrations (in triplicate) it is possible to determine an IC50 values for each compound compared to a positive and negative (solvent) control. The percentage inhibition (0-100%) is plotted against compound concentration and a 3-parameter sigmoidal (dose-response) curve fitted (Graphpad Prism v 4) by non-linear regression.

CDK5/p25 = molecular target: T1, CDK5/p25 (Homo sapiens, UniProt Q00535); assay: protein kinase activity assay ([γ-32P] ATP, histone H1); assay type: biochemical; details: 15 μM ATP, 30° C.; tested up to 100 μM; read-out: IC50 CDK5/p25
T1 construct: made in house
Experimental: Buffer A: 10 mM MgCl2, 1 mM EGTA, 1 mM DTT, 25 mM Tris-HCl pH 7.5, 50 μg heparin/mL. Buffer C: 60 mM β-glycerophosphate, 15 mM p-nitrophenylphosphate, 25 mM Mops (pH 7.2), 5 mM EGTA, 15 mM MgCl2, 1 mM DTT, 1 mM sodium vanadate, 1 mM phenyl phosphate.
Anticancer activity is commonly associated with the inhibition of kinase enzymes. […] Blank values are subtracted and activities expressed as percent of the maximal activity, i.e. in the absence of inhibitors (Table 4). Controls were performed with appropriate dilutions of DMSO, which was used to dissolve all test compounds.
CDK1/cyclin B (native M phase starfish oocytes), and CDK5/p25 (recombinant human) can be prepared according to the prior art (Meijer, L.; Thunnissen, A. M. W. H.; White, A. W.; Gamier, M.; Nikolic, M., et al. Chem. Biol. 2000, 7, 51-63). […] ATP (3,000 Ci/mmol, 10 mCi/mL) in a final volume of 30 μL. After 30 min. incubation at 30° C., 25 μL aliquots of supernatant are spotted onto 2.5×3 cm pieces of Whatman P81 phosphocellulose paper and, 20 s later, the filters are washed five times (for at least 5 min. each time) in a solution of 10 mL phosphoric acid/L of water. The wet filters are then counted in the presence of 1 mL ACS (Amersham) scintillation fluid.

BMPR1B = BMPR1B (Homo sapiens, UniProt O00238); assay: kinase binding constant, 11-point dose response (T7 phage, qPCR); details: >30 = no inhibition at highest concentration tested
Experimental: as §1, §2

T1 sequence (Q00535 whole entry): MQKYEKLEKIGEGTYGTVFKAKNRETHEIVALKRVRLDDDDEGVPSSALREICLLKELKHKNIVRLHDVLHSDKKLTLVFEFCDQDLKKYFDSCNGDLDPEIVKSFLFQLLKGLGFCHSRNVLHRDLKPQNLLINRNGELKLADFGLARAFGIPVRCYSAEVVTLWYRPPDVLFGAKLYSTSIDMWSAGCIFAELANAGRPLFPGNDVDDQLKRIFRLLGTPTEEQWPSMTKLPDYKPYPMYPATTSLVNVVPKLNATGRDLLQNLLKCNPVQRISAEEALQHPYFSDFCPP
T1 sequence (Q15078 99-307 partner limits assumed): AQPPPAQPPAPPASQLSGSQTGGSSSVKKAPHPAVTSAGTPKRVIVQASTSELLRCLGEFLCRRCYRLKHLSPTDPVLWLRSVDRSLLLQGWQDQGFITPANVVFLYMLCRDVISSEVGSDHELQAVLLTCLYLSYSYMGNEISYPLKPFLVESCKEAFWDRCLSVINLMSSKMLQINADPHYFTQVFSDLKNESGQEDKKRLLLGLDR
Sequence of BMPR1B (O00238 14-502): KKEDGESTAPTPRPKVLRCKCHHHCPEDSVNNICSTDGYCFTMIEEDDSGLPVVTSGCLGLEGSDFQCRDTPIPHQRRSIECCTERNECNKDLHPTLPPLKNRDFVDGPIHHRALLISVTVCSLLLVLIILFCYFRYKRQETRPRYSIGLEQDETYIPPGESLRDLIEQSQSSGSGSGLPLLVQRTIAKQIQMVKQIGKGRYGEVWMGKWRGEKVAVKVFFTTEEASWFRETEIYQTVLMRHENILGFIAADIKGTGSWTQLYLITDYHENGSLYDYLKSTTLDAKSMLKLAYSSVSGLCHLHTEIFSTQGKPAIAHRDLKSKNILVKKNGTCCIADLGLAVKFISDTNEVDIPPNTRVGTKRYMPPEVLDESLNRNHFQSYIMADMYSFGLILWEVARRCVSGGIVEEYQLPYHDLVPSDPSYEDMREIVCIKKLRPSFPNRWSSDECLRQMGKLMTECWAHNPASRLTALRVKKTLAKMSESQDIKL
Sequence of CAMKK2 (Q96RR4 whole entry): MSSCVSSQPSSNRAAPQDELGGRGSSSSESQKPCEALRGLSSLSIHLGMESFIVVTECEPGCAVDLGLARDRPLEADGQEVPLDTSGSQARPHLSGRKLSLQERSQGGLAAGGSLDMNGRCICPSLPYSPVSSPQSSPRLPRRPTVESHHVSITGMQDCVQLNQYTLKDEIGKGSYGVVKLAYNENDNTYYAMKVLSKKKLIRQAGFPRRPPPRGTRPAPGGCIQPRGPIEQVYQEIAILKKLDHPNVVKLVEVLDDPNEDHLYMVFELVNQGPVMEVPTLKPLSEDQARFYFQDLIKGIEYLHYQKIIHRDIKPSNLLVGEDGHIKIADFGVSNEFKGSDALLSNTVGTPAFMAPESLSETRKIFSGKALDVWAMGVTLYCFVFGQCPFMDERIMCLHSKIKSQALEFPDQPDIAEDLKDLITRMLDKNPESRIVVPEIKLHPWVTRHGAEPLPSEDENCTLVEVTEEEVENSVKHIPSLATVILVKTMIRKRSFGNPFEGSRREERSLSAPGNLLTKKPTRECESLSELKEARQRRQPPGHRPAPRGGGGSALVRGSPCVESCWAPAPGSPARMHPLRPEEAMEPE
Sequence of CAMKK1 (Q8N5S9 whole entry): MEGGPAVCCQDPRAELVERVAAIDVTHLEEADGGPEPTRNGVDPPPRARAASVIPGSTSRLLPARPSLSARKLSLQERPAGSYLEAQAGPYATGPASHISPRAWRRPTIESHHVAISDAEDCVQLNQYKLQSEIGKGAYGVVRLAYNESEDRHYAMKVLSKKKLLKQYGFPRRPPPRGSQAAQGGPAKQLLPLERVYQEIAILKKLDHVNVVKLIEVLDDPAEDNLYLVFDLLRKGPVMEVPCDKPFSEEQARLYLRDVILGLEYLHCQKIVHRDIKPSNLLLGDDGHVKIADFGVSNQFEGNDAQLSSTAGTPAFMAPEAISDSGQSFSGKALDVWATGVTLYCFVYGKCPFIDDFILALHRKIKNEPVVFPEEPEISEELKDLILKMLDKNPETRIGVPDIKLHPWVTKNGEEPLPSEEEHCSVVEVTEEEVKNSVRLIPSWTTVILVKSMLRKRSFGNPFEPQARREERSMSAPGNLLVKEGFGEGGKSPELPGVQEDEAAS

For `Nc1nc2c(-c3ccccn3)nccc2[nH]1` [drawing 35, 4-(pyrid-2-yl)-1H-imidazo[4,5-c]pyridin-2-amine], the Kd (DYRK1A) was 290 nM, the Kd (CAMKK1) was over 30 µM and the Kd (CAMKK2) was over 30 µM.

Compound `Nc1nc2c(-c3cc(Br)c(Br)[nH]3)nccc2[nH]1` [Ageladine A, ageladine A, reference compound] has an IC50 [1] of 25 µg/mL (≈ 70 µM) and an IC50 (CDK5/p25) of over 100 µM.

Work on `Nc1nc2c(-c3cnc4ccccc4c3)nccc2[nH]1` [drawing 36, 4-(quinolin-3-yl)-1H-imidazo[4,5-c]pyridin-2-amine] yielded a Kd (DYRK1A) of 300 nM and a Kd (BMPR1B) of 7.2 µM.
